Results as given in PubChem BioAssay AID2060512 (Molecular Pharmacology Branch, DTP, NCI, 2025).

Test system: 186277-243-T-J2-PDC complex spheroid viability
Test: Anticancer human tumor 186277-243-T-J2-PDC patient-derived colon adenocarcinoma cell line growth inhibition [GQUAD]
Settings: for IC50: curve of first compound; for viability, T/C: stronger effect = lower value
How it was run: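 Tumor cells were grown as complex spheroids with HUVEC endothelial cells and mesenchymal stem cells as stroma. G-quadruplex stabilizers were combined with targeted agents over half-log dilutions from near the clinical Cmax, or from 10 microM.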

[1] = second compound 0.0316 µM, first compound 0.0316 µM
[2] = second compound 0.0316 µM, first compound 0.316 µM
[3] = second compound 0.1 µM, first compound 0.0316 µM
[4] = second compound 0.1 µM, first compound 0.316 µM
[5] = second compound 0.316 µM, first compound 0.0316 µM
[6] = second compound 0.316 µM, first compound 0.316 µM
[7] = second compound 1 µM, first compound 0.0316 µM
[8] = second compound 1 µM, first compound 0.316 µM
[9] = second compound 3.16 µM, first compound 0.0316 µM
[10] = second compound 3.16 µM, first compound 0.316 µM
[11] = second compound 10 µM, first compound 0.0316 µM
[12] = second compound 10 µM, first compound 0.316 µM
[13] = second compound 0.0316 µM, first compound 0.1 µM
[14] = second compound 0.0316 µM, first compound 1 µM
[15] = second compound 0.0316 µM, first compound 3.16 µM
[16] = second compound 0.0316 µM, first compound 10 µM
[17] = second compound 0.1 µM, first compound 0.1 µM
[18] = second compound 0.1 µM, first compound 1 µM
[19] = second compound 0.1 µM, first compound 3.16 µM
[20] = second compound 0.1 µM, first compound 10 µM
[21] = second compound 0.316 µM, first compound 0.1 µM
[22] = second compound 0.316 µM, first compound 1 µM
[23] = second compound 0.316 µM, first compound 3.16 µM
[24] = second compound 0.316 µM, first compound 10 µM
[25] = second compound 1 µM, first compound 0.1 µM
[26] = second compound 1 µM, first compound 1 µM
[27] = second compound 1 µM, first compound 3.16 µM
[28] = second compound 1 µM, first compound 10 µM
[29] = second compound 3.16 µM, first compound 0.1 µM
[30] = second compound 3.16 µM, first compound 1 µM
[31] = second compound 3.16 µM, first compound 3.16 µM
[32] = second compound 3.16 µM, first compound 10 µM
[33] = second compound 10 µM, first compound 0.1 µM
[34] = second compound 10 µM, first compound 1 µM
[35] = second compound 10 µM, first compound 3.16 µM
[36] = second compound 10 µM, first compound 10 µM
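Note: spheroids exposed to drugs for 7 days.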
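Throughout, for viability, T/C: 100% = DMSO vehicle control viability.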

Cc1[nH]c2ccccc2c1CCNCc1ccc(/C=C/C(=O)NO)cc1 + CN(C)c1ccc(Nc2c3ccc(NC(=O)CCN4CCCC4)cc3nc3cc(NC(=O)CCN4CCCC4)ccc23)cc1
IC50 (second compound 0.0316 µM): 58.1 nM | IC50 (second compound 0.1 µM): 55.6 nM | IC50 (second compound 0.316 µM): 58.8 nM | IC50 (second compound 1 µM): 63.2 nM | IC50 (second compound 3.16 µM): 58.3 nM | IC50 (second compound 10 µM): 58.1 nM | viability, T/C (second compound 0.0316 µM, first compound 0.000999 µM): 99.5% | viability, T/C (second compound 0.0316 µM, first compound 0.00316 µM): 86.5% | viability, T/C (second compound 0.0316 µM, first compound 0.00999 µM): 96.7% | viability, T/C [1]: 92.6% | viability, T/C (second compound 0.0316 µM, first compound 0.0999 µM): 12.1% | viability, T/C [2]: 0.65% | viability, T/C (second compound 0.1 µM, first compound 0.000999 µM): 115% | viability, T/C (second compound 0.1 µM, first compound 0.00316 µM): 93.7% | viability, T/C (second compound 0.1 µM, first compound 0.00999 µM): 80.6% | viability, T/C [3]: 84.6% | viability, T/C (second compound 0.1 µM, first compound 0.0999 µM): 14.9% | viability, T/C [4]: 0.86% | viability, T/C (second compound 0.316 µM, first compound 0.000999 µM): 76.5% | viability, T/C (second compound 0.316 µM, first compound 0.00316 µM): 96.9% | viability, T/C (second compound 0.316 µM, first compound 0.00999 µM): 91.7% | viability, T/C [5]: 87.8% | viability, T/C (second compound 0.316 µM, first compound 0.0999 µM): 17.7% | viability, T/C [6]: 2.93% | viability, T/C (second compound 1 µM, first compound 0.000999 µM): 86.3% | viability, T/C (second compound 1 µM, first compound 0.00316 µM): 94.6% | viability, T/C (second compound 1 µM, first compound 0.00999 µM): 87.4% | viability, T/C [7]: 107% | viability, T/C (second compound 1 µM, first compound 0.0999 µM): 21% | viability, T/C [8]: 1.2% | viability, T/C (second compound 3.16 µM, first compound 0.000999 µM): 93% | viability, T/C (second compound 3.16 µM, first compound 0.00316 µM): 93% | viability, T/C (second compound 3.16 µM, first compound 0.00999 µM): 96% | viability, T/C [9]: 92% | viability, T/C (second compound 3.16 µM, first compound 0.0999 µM): 13.1% | viability, T/C [10]: 1.46% | viability, T/C (second compound 10 µM, first compound 0.000999 µM): 82.8% | viability, T/C (second compound 10 µM, first compound 0.00316 µM): 92.6% | viability, T/C (second compound 10 µM, first compound 0.00999 µM): 97.2% | viability, T/C [11]: 96.2% | viability, T/C (second compound 10 µM, first compound 0.0999 µM): 12.4% | viability, T/C [12]: 0.74%

CC1COCCN1c1cc(-c2ccnn2C)c2ccnc(-c3ccn[nH]3)c2n1 (stereo unspecified) + Cc1cnc(CNC(=O)c2c(=O)c3ccc(N4CCCN(C)CC4)nc3n3c2sc2ccccc23)cn1
IC50 (second compound 0.0316 µM): < 31.6 nM | IC50 (second compound 0.1 µM): < 31.6 nM | IC50 (second compound 0.316 µM): < 31.6 nM | IC50 (second compound 1 µM): < 31.6 nM | IC50 (second compound 3.16 µM): < 31.6 nM | IC50 (second compound 10 µM): < 31.6 nM | viability, T/C [1]: 34.5% | viability, T/C [13]: 16.1% | viability, T/C [2]: 9.69% | viability, T/C [14]: 5.33% | viability, T/C [15]: 6.04% | viability, T/C [16]: 5.15% | viability, T/C [3]: 46.1% | viability, T/C [17]: 22.2% | viability, T/C [4]: 11.5% | viability, T/C [18]: 6.17% | viability, T/C [19]: 6.04% | viability, T/C [20]: 5.5% | viability, T/C [5]: 46.5% | viability, T/C [21]: 30% | viability, T/C [6]: 21% | viability, T/C [22]: 10.3% | viability, T/C [23]: 6.67% | viability, T/C [24]: 5.76% | viability, T/C [7]: 35.3% | viability, T/C [25]: 31.9% | viability, T/C [8]: 24.9% | viability, T/C [26]: 17.1% | viability, T/C [27]: 10.4% | viability, T/C [28]: 5.91% | viability, T/C [9]: 32.1% | viability, T/C [29]: 28.4% | viability, T/C [10]: 26.2% | viability, T/C [30]: 17.8% | viability, T/C [31]: 13.2% | viability, T/C [32]: 6.37% | viability, T/C [11]: 27.9% | viability, T/C [33]: 26% | viability, T/C [12]: 24.6% | viability, T/C [34]: 17.3% | viability, T/C [35]: 12% | viability, T/C [36]: 6.6%

CCCS(=O)(=O)Nc1ccc(F)c(C(=O)c2c[nH]c3ncc(-c4ccc(Cl)cc4)cc23)c1F + Cc1[nH]c2ccc(F)cc2c1-c1nc2c3cccnc3c3ncccc3c2[nH]1
IC50 (second compound 0.0316 µM): 6010 nM | IC50 (second compound 0.1 µM): 6440 nM | IC50 (second compound 0.316 µM): 5920 nM | IC50 (second compound 1 µM): 6940 nM | IC50 (second compound 3.16 µM): 5650 nM | IC50 (second compound 10 µM): 5280 nM | viability, T/C [1]: 109% | viability, T/C [13]: 105% | viability, T/C [2]: 99% | viability, T/C [14]: 91% | viability, T/C [15]: 86% | viability, T/C [16]: 24.1% | viability, T/C [3]: 111% | viability, T/C [17]: 107% | viability, T/C [4]: 101% | viability, T/C [18]: 103% | viability, T/C [19]: 98.5% | viability, T/C [20]: 20% | viability, T/C [5]: 111% | viability, T/C [21]: 107% | viability, T/C [6]: 104% | viability, T/C [22]: 119% | viability, T/C [23]: 82.7% | viability, T/C [24]: 22.7% | viability, T/C [7]: 89.6% | viability, T/C [25]: 107% | viability, T/C [8]: 108% | viability, T/C [26]: 115% | viability, T/C [27]: 103% | viability, T/C [28]: 25.3% | viability, T/C [9]: 110% | viability, T/C [29]: 113% | viability, T/C [10]: 97.9% | viability, T/C [30]: 95% | viability, T/C [31]: 89.8% | viability, T/C [32]: 13.7% | viability, T/C [11]: 90.2% | viability, T/C [33]: 95.9% | viability, T/C [12]: 103% | viability, T/C [34]: 98.4% | viability, T/C [35]: 82% | viability, T/C [36]: 9.98%
